Measurements taken from US8987195B2 (priority 2012, dated 2015).

Tests used:
HCV genotype 1b replicon = test: HCV replicon assay, genotype 1b replicon EC50; assay type: cell-based, Hepatitis C virus; conditions: Hepatitis C virus, genotype 1b replicon; read-out: EC50 [gt-1b]
Procedure, shortened: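 Potency comes from a four-parameter fit of signal as percent of DMSO control. Replicon-bearing cells were treated 24-48 hours with a compound dilution series in absence of G418, and replicon RNA was quantified normalized to cyclophilin A RNA, or luciferase read.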

[1] = target: HCV NS3/4A protease genotype 1b (Hepatitis C virus genotype 1b, UniProt P26663); test: HCV NS3/4A protease time-resolved fluorescence (TRF) assay, Ki against genotype 1b; assay type: biochemical; conditions: IC50 [gt-1b] (nM), NS3/4A genotype 1b, enzyme 0.2 nM
Procedure, shortened: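 Enzyme was pre-incubated 30 min with inhibitor in HEPES pH 7.5 buffer (150 mM NaCl, 15% glycerol, 10 mM DTT). Reaction ran 2.5 h at room temperature with 25 nM europium TRF peptide substrate, read at ex 340/em 615 nm. Enzyme levels: 0.2 nM (1b), 0.4 nM (A156T), 0.025 nM (3a). Ki came from four-parameter IC50 via IC50=Ki(1+[S]/KM).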

Compound	EC50 (HCV genotype 1b replicon) [nM]	IC50 [1] [nM]
Cc1nc2c(C(F)(F)F)cccc2c2c1O[C@]1(CC2)C[C@H]2C(=O)N[C@]3(C(=O)NS(=O)(=O)C4CC4)C[C@H]3/C=C\CCCCC[C@H](NC(=O)OC(C)(C)C)C(=O)N2C1 [Example 95, tert-butyl [(2R,6S,12Z,13aS,14aR,16aS)-14a-[(cyclopropylsulfonyl)carbamoyl]-5′-methyl-5,16-dioxo-7′-(trifluoromethyl)-1,1′,2′,5,6,7,8,9,10,11,13a,14,14a,15,16,16a-hexadecahydrospiro[cyclopropa[e]pyrrolo[1,2-a][1,4]diazacyclopentadecine-2,3′-pyrano[2,3-c]quinolin]-6-yl]carbamate]	5.24	0.993
Cc1nc2ccccc2c2c1O[C@]1(CC2)C[C@H]2C(=O)N[C@]3(C(=O)NS(=O)(=O)C4(C)CC4)C[C@H]3/C=C\CCCCC[C@H](NC(=O)OC3CCCC3)C(=O)N2C1 [Example 96, cyclopentyl [(2R,6S,12Z,13aS,14aR,16aS)-5′-methyl-14a-{[(1-methylcyclopropyl)sulfonyl]carbamoyl}-5,16-dioxo-1,1′,2′,5,6,7,8,9,10,11,13a,14,14a,15,16,16a-hexadecahydrospiro[cyclopropa[e]pyrrolo[1,2-a][1,4]diazacyclopentadecine-2,3′-pyrano[2,3-c]quinolin]-6-yl]carbamate]	0.796	0.01
Cc1nc2ccccc2c2c1O[C@]1(CC2)C[C@H]2C(=O)N[C@]3(C(=O)NS(=O)(=O)C4(C)CC4)C[C@H]3/C=C\CCCCC[C@H](NC(=O)OCC(C)C)C(=O)N2C1 [Example 97, 2-methylpropyl [(2R,6S,12Z,13aS,14aR,16aS)-5′-methyl-14a-{[(1-methylcyclopropyl)sulfonyl]carbamoyl}-5,16-dioxo-1,1′,2′,5,6,7,8,9,10,11,13a,14,14a,15,16,16a-hexadecahydrospiro[cyclopropa[e]pyrrolo[1,2-a][1,4]diazacyclopentadecine-2,3′-pyrano[2,3-c]quinolin]-6-yl]carbamate]	1.94	0.016
CC(C)(C)OC(=O)N[C@H]1CCCCC/C=C\[C@@H]2C[C@@]2(C(=O)NS(=O)(=O)C2CC2)NC(=O)[C@@H]2C[C@]3(CCc4c(cnc5ccccc45)O3)CN2C1=O [Example 98, tert-butyl {(2R,6S,12Z,13aS,14aR,16aS)-14a-[(cyclopropylsulfonyl)carbamoyl]-5,16-dioxo-1,1′,2′,5,6,7,8,9,10,11,13a,14,14a,15,16,16a-hexadecahydrospiro[cyclopropa[e]pyrrolo[1,2-a][1,4]diazacyclopentadecine-2,3′-pyrano[2,3-c]quinolin]-6-yl}carbamate]	9.72	0.057
CC(C)(C)OC(=O)N[C@H]1CCCCC/C=C\[C@@H]2C[C@@]2(C(=O)NS(=O)(=O)C2(C)CC2)NC(=O)[C@@H]2C[C@]3(CCc4c(cnc5ccccc45)O3)CN2C1=O [Example 99, tert-butyl [(2R,6S,12Z,13aS,14aR,16aS)-14a-{[(1-methylcyclopropyl)sulfonyl]carbamoyl}-5,16-dioxo-1,1′,2′,5,6,7,8,9,10,11,13a,14,14a,15,16,16a-hexadecahydrospiro[cyclopropa[e]pyrrolo[1,2-a][1,4]diazacyclopentadecine-2,3′-pyrano[2,3-c]quinolin]-6-yl]carbamate]	4.53	0.033
COc1ccc2nc(C3CC3)c3c(c2c1)CC[C@]1(C[C@H]2C(=O)N[C@]4(C(=O)NS(=O)(=O)C5(C)CC5)C[C@H]4/C=C\CCCCC[C@H](NC(=O)OCC(C)C)C(=O)N2C1)O3 [Example 100, 2-methylpropyl [(2R,6S,12Z,13aS,14aR,16aS)-5′-cyclopropyl-9′-methoxy-14a-{[(1-methylcyclopropyl)sulfonyl]carbamoyl}-5,16-dioxo-1,1′,2′,5,6,7,8,9,10,11,13a,14,14a,15,16,16a-hexadecahydrospiro[cyclopropa[e]pyrrolo[1,2-a][1,4]diazacyclopentadecine-2,3′-pyrano[2,3-c]quinolin]-6-yl]carbamate]	2.08	0.011
CC(C)(C)OC(=O)N[C@H]1CCCCC/C=C\[C@@H]2C[C@@]2(C(=O)O)NC(=O)[C@@H]2C[C@]3(CCc4c(cnc5ccccc45)O3)CN2C1=O [Example 101, (2R,6S,12Z,13aS,14aR,16aS)-6-[(tert-butoxycarbonyl)amino]-5,16-dioxo-1,1′,2′,6,7,8,9,10,11,13a,14,15,16,16a-tetradecahydrospiro[cyclopropa[e]pyrrolo[1,2-a][1,4]diazacyclopentadecine-2,3′-pyrano[2,3-c]quinoline]-14a(5H)-carboxylic acid]	> 100	38.2
CC1(OC(=O)N[C@H]2CCCCC/C=C\[C@@H]3C[C@@]3(C(=O)NS(=O)(=O)C3(C)CC3)NC(=O)[C@@H]3C[C@]4(CCc5c(c(C6CC6)nc6ccccc56)O4)CN3C2=O)CC1 [Example 102, 1-methylcyclopropyl [(2R,6S,12Z,13aS,14aR,16aS)-5′-cyclopropyl-14a-{[(1-methylcyclopropyl)sulfonyl]carbamoyl}-5,16-dioxo-1,1′,2′,5,6,7,8,9,10,11,13a,14,14a,15,16,16a-hexadecahydrospiro[cyclopropa[e]pyrrolo[1,2-a][1,4]diazacyclopentadecine-2,3′-pyrano[2,3-c]quinolin]-6-yl]carbamate]	1.58	0.004
CC(C)COC(=O)N[C@H]1CCCCC/C=C\[C@@H]2C[C@@]2(C(=O)NS(=O)(=O)C2(C)CC2)NC(=O)[C@@H]2C[C@]3(CCc4c(c(C5CC5)nc5ccccc45)O3)CN2C1=O [Example 103, 2-methylpropyl [(2R,6S,12Z,13aS,14aR,16aS)-5′-cyclopropyl-14a-{[(1-methylcyclopropyl)sulfonyl]carbamoyl}-5,16-dioxo-1,1′,2′,5,6,7,8,9,10,11,13a,14,14a,15,16,16a-hexadecahydrospiro[cyclopropa[e]pyrrolo[1,2-a][1,4]diazacyclopentadecine-2,3′-pyrano[2,3-c]quinolin]-6-yl]carbamate]	1.51	0.012
CC1(S(=O)(=O)NC(=O)[C@@]23C[C@H]2/C=C\CCCCC[C@H](NC(=O)OC2CCCC2)C(=O)N2C[C@@]4(CCc5c(c(C6CC6)nc6ccccc56)O4)C[C@H]2C(=O)N3)CC1 [Example 104, cyclopentyl [(2R,6S,12Z,13aS,14aR,16aS)-5′-cyclopropyl-14a-{[(1-methylcyclopropyl)sulfonyl]carbamoyl}-5,16-dioxo-1,1′,2′,5,6,7,8,9,10,11,13a,14,14a,15,16,16a-hexadecahydrospiro[cyclopropa[e]pyrrolo[1,2-a][1,4]diazacyclopentadecine-2,3′-pyrano[2,3-c]quinolin]-6-yl]carbamate]	1.39	0.013
Cc1nc2ccccc2c2c1O[C@]1(CC2)C[C@H]2C(=O)N[C@]3(C(=O)NS(=O)(=O)C4(C)CC4)C[C@H]3/C=C\CCCCC[C@H](NC(=O)OC(C)C)C(=O)N2C1 [Example 105, propan-2-yl [(2R,6S,12Z,13aS,14aR,16aS)-5′-methyl-14a-{[(1-methylcyclopropyl)sulfonyl]carbamoyl}-5,16-dioxo-1,1′,2′,5,6,7,8,9,10,11,13a,14,14a,15,16,16a-hexadecahydrospiro[cyclopropa[e]pyrrolo[1,2-a][1,4]diazacyclopentadecine-2,3′-pyrano[2,3-c]quinolin]-6-yl]carbamate]	1.42	0.013
Cc1nc2ccccc2c2c1O[C@@]1(C[C@H]3C(=O)N[C@]4(C(=O)NS(=O)(=O)C5(C)CC5)C[C@H]4/C=C\CCCCC[C@H](NC(=O)OCC(C)C)C(=O)N3C1)CC2(F)F [Example 106, 2-methylpropyl [(2S,6S,12Z,13aS,14aR,16aS)-1′,1′-difluoro-5′-methyl-14a-{[(1-methylcyclopropyl)sulfonyl]carbamoyl}-5,16-dioxo-1,1′,2′,5,6,7,8,9,10,11,13a,14,14a,15,16,16a-hexadecahydrospiro[cyclopropa[e]pyrrolo[1,2-a][1,4]diazacyclopentadecine-2,3′-pyrano[2,3-c]quinolin]-6-yl]carbamate]	3.21	0.048
Cc1nc2c(F)cccc2c2c1O[C@]1(CC2)C[C@H]2C(=O)N[C@]3(C(=O)NS(=O)(=O)C4CC4)C[C@H]3/C=C\CCCCC[C@H](NC(=O)OC(C)(C)C)C(=O)N2C1 [Example 107, tert-butyl {(2R,6S,12Z,13aS,14aR,16aS)-14a-[(cyclopropylsulfonyl)carbamoyl]-7′-fluoro-5′-methyl-5,16-dioxo-1,1′,2′,5,6,7,8,9,10,11,13a,14,14a,15,16,16a-hexadecahydrospiro[cyclopropa[e]pyrrolo[1,2-a][1,4]diazacyclopentadecine-2,3′-pyrano[2,3-c]quinolin]-6-yl}carbamate]	3.48	0.014
Cc1ccc2nc(C)c3c(c2c1)CC[C@]1(C[C@H]2C(=O)N[C@]4(C(=O)NS(=O)(=O)C5(C)CC5)C[C@H]4/C=C\CCCCC[C@H](NC(=O)OCC(C)C)C(=O)N2C1)O3 [Example 108, 2-methylpropyl [(2R,6S,12Z,13aS,14aR,16aS)-5′,9′-dimethyl-14a-{[(1-methylcyclopropyl)sulfonyl]carbamoyl}-5,16-dioxo-1,1′,2′,5,6,7,8,9,10,11,13a,14,14a,15,16,16a-hexadecahydrospiro[cyclopropa[e]pyrrolo[1,2-a][1,4]diazacyclopentadecine-2,3′-pyrano[2,3-c]quinolin]-6-yl]carbamate]	1.23	0.007
